Laboratory results as given in patent US9909125B2, “Molecular targets for selective eradication of senescent cells” (Everon Biosciences, Inc., priority 2013, dated 2018).

Test system: senescent human neonatal dermal fibroblasts
Assay: Crystal violet staining of shRNA-transduced senescent fibroblasts (FIG. 4)
Assay type: cell-based
Settings: lentiviral shRNA, puromycin 72 hours, crystal violet at 20 days; senescence by bleomycin 10 μg/ml 24 hr + 10 days
Protocol: FIG. 4. Effect of selected shRNAs on viability of proliferating and senescent human neonatal dermal fibroblasts. Senescence was induced by treatment with bleomycin (10 μg/ml) for 24 hr followed by incubation for 10 days to establish senescent phenotype. (1) The proliferating and senescent cells were transduced with lentiviruses carrying both shRNA and mCherry constructs. Transduced cells were selected with puromycin for 72 hours and the presence of shRNA construct was confirmed by microscopic detection of mCherry fluorescence (see example of mCherry fluorescence in FIG. 4, panel 1). In 8 days for proliferating and 20 days for senescent cells, the cells were stained with crystal violet dye. The images of the live/dead cells were obtain using a digital camera (panels 2-4).
To confirm universal activity of identified target genes across different senescence models 60 candidate shRNA identified in all primary screenings were transduced to a secondary models of senescence: human diploid dermal fibroblasts induced to senescence by bleomycin treatment (DNA-damage induction) or senescence was induced by replicative exhaustion (replicative senescence).

Substance | effect on viability of senescent cells
FGF1: shRNA coding sequence targeting FGF1 (DNA CCTGATAACAAGTAAGGATATGTTAATATTCATAGCATATCCTTGCTTGTTATCAGG) | critical for viability of senescent cells
POU5F1: shRNA coding sequence targeting POU5F1 (DNA TCATTCACTAAGGAAGGAATTGTTAATATTCATAGCAATTCCTTCCTTAGTGAATGA) | critical for viability of senescent cells
